Assay results taken from patent US9809573B2, “Substituted pyridine derivatives useful as GSK-3 inhibitors” (priority 2013, dated 2017).
Where two headings read alike, the source gives them in different places.

How the values were obtained:
[1] = target: GSK3β (Homo sapiens, UniProt P49841); assay: GSK3β kinase assay (Caliper LabChip3000, fluoresceinated peptide substrate); type: biochemical
Procedure, shortened: (§1)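 Readout: electrophoretic resolution of phosphorylated from unphosphorylated peptide on a LabChip3000. Reactions incubated 20 h at room temperature before termination with 35 mM EDTA. Eleven-concentration curves gave IC50 via non-linear regression.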

[2] = target: GSK3α (Homo sapiens, UniProt P49840); assay: biochemical
Procedure, shortened: as §1

[3] = test system: pTau; assay: pTau assay (method not described); type: cell-based
[4] = first value of the cell, 250 pM enzyme, 20 uM ATP, 20 hours at room temperature, read-out: GSK3β/α (nM): GSK3β IC50
[5] = second value of the cell, 250 pM enzyme, 20 uM ATP, 20 hours at room temperature, read-out: GSK3β/α (nM): GSK3α IC50

GSK3α, sequence (P49840 whole entry, species assumed): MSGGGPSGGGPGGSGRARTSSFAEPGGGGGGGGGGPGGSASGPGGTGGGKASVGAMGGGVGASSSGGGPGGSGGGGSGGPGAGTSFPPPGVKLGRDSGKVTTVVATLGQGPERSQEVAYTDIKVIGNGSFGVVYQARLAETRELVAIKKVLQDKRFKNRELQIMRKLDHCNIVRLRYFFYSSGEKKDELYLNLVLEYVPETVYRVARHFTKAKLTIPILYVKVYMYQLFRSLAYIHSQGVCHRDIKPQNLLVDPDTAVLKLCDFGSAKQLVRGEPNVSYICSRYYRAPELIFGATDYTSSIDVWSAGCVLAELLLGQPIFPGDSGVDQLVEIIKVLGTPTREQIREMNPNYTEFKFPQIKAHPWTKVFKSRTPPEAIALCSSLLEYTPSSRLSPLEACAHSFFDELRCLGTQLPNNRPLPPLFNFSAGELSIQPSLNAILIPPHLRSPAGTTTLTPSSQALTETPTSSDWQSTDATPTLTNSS
GSK3β, sequence (P49841 whole entry, species assumed): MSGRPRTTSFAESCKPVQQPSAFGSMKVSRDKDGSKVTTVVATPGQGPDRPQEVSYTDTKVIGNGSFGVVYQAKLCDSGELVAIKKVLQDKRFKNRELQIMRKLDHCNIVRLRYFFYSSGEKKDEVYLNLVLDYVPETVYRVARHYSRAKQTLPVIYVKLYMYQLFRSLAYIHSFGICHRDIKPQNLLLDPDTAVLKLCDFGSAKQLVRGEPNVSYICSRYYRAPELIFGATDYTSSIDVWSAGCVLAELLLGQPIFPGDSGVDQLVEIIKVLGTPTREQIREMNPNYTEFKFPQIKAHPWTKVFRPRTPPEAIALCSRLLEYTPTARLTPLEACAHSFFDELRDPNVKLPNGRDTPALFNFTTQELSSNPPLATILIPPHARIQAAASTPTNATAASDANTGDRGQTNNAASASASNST

IC50 [2] [nM] | IC50 ([3]; read-out: pTau (nM)) [nM] | IC50 [1, 4] [nM] | IC50 ([3]; read-out: pTau) [nM] | SMILES | IC50 [1] [nM] | IC50 [2, 5] [nM]
 |  | 0.08 | 12 | CCC1(c2cc(Cl)ncc2NC(=O)c2ccnc(NC(=O)C(C)C)c2)OCCO1 [Example 191, N-(6-chloro-4-(2-ethyl-1,3-dioxolan-2-yl)pyridin-3-yl)-2-isobutyramidoisonicotinamide] |  | 0.12
 |  | 3.8 | 140 | CC(C)C(=O)Nc1cc(C(=O)Nc2cncc(-c3cccc(F)c3F)c2)ccn1 [Example 194, N-(5-(2,3-difluorophenyl)pyridin-3-yl)-2-isobutyramidoisonicotinamide] |  | 1.4
 |  | 10 | 107 | CC(C)C(=O)Nc1cc(C(=O)Nc2cncc(-c3ccccc3Cl)c2)ccn1 [Example 195, N-(5-(2-chlorophenyl)pyridin-3-yl)-2-isobutyramidoisonicotinamide] |  | 1.5
 |  | 13 | 520 | CC(C)C(=O)Nc1cc(C(=O)Nc2cnccc2C(=O)c2ccccc2)ccn1 [Example 196, N-(4-benzoylpyridin-3-yl)-2-isobutyramidoisonicotinamide] |  | 5.9
 |  | 19 | 320 | CC(C)C(=O)Nc1cc(C(=O)Nc2cncc(C(O)c3ccccc3)c2)ccn1 (stereo not drawn) [Example 197, N-(5-(hydroxy(phenyl)methyl)pyridin-3-yl)-2-isobutyramidoisonicotinamide] |  | 12
 |  | 390 | 9900 | CC(C)C(=O)Nc1cc(C(=O)Nc2cnccc2C(F)(F)c2ccccc2)ccn1 [Example 198, N-(4-(difluoro(phenyl)methyl)pyridin-3-yl)-2-isobutyramidoisonicotinamide] |  | 230
 |  | 10 | 720 | CC(C)C(=O)Nc1cc(C(=O)Nc2cnccc2C(F)c2ccccc2)ccn1 (stereo not drawn) [Example 199, N-(4-(fluoro(phenyl)methyl)pyridin-3-yl)-2-isobutyramidoisonicotinamide] |  | 12
 |  | 6.1 | 510 | C=C(c1ccccc1)c1ccncc1NC(=O)c1ccnc(NC(=O)C(C)C)c1 [Example 200, 2-Isobutyramido-N-(4-(1-phenylvinyl)pyridine-3-yl)isonicotinamide] |  | 4.7
 |  | 1.1 | 26 | CC(C)C(=O)Nc1cc(C(=O)Nc2cnccc2OCC2(C)CC2)ccn1 [Example 201, 2-isobutyramido-N-(4-((1-methylcyclopropyl)methoxy)pyridin-3-yl)isonicotinamide] |  | 0.4
0.46 | 50 |  |  | CC(C)C(=O)Nc1cc(C(=O)Nc2cnccc2OCC(C)(F)F)ccn1 [Example 202, N-(4-(2,2-Difluoropropoxy)pyridin-3-yl)-2-isobutyramidoisonicotinamide] | 1 | 
 |  | 3 | 190 | CC(C)C(=O)Nc1cc(C(=O)Nc2cnccc2N2CCC(F)(F)CC2)c(F)cn1 [Example 206, N-(4-(4,4-difluoropiperidin-1-yl)pyridin-3-yl)-5-fluoro-2-isobutyramidoisonicotinamide] |  | 2.1
 |  | 2.5 | 160 | CC(C)C(=O)Nc1cc(C(=O)Nc2cncc(-c3ccccc3F)n2)ccn1 [Example 207, N-(6-(2-fluorophenyl)pyrazin-2-yl)-2-isobutyramidoisonicotinamide] |  | 1.1
 |  | 3.6 | 250 | CCC1(c2cc(Cl)ncc2NC(=O)c2ccnc(NC(=O)C(C)(C)C)c2)OCCO1 [Example 210, N-(6-chloro-4-(2-ethyl-1,3-dioxolan-2-yl)pyridin-3-yl)-2-pivalamidoisonicotinamide] |  | 1.3
4.4 | 96 |  |  | O=C(Nc1cnccc1-c1ccccc1)c1ccnc(NC(=O)C2CCC2)c1 [Example 212, 2-(Cyclobutanecarboxamido)-N-(4-phenylpyridin-3-yl)isonicotinamide] | 4.3 | 
 |  | 17 | 450 | O=C(Nc1cnccc1-c1ccccc1)c1ccnc(NC(=O)[C@H]2C[C@H](O)C2)c1 [Example 219, 2-((1,3-Trans)-3-hydroxycyclobutanecarboxamido)-N-(4-phenylpyridin-3-yl)isonicotinamide] |  | 6.4
1.4 | 47 |  |  | O=C(Nc1cnccc1-c1ccccc1)c1ccnc(NC(=O)C2CCCC2)c1 [Example 227, 2-(Cyclopentanecarboxamido)-N-(4-phenylpyridin-3-yl)isonicotinamide] | 1.6 | 
 |  | 1.6 | 130 | O=C(Nc1cncc2ccccc12)c1ccnc(NC(=O)C2CCCC2)c1 [Example 228, 2-(Cyclopentanecarboxamido)-N-(isoquinolin-4-yl)isonicotinamide] |  | 1.1
 |  | 1 | 340 | O=C(Nc1cncc(-c2ccccc2)c1)c1ccnc(NC(=O)C2CCC(F)(F)C2)c1 (stereo not drawn) [Example 233, 2-(3,3-difluorocyclopentanecarboxamido)-N-(5-phenylpyridin-3-yl)isonicotinamide] |  | 0.33

SMILES | IC50 [2] [nM] | IC50 ([3]; read-out: pTau (nM)) [nM] | IC50 [1, 4] [nM] | IC50 ([3]; read-out: pTau) [nM] | IC50 [1] [nM] | IC50 [2, 5] [nM]
CC(C)C(=O)Nc1cc(C(=O)Nc2cnccc2OCCC(C)(C)O)ccn1 [Example 190, N-(4-(3-hydroxy-3-methylbutoxy)pyridin-3-yl)-2-isobutyramidoisonicotinamide] | 1.4 | 19 |  |  | 3.3 | 
CC(C)C(=O)Nc1cc(C(=O)Nc2cncc(-c3cc(F)ccc3F)c2)ccn1 [Example 192, N-(5-(2,5-difluorophenyl)pyridin-3-yl)-2-isobutyramidoisonicotinamide] |  |  |  | 94 | 4.6 | 1.4
CC(C)C(=O)Nc1cc(C(=O)Nc2cncc(-c3ccccc3F)c2)ccn1 [Example 193, N-(5-(2-fluorophenyl)pyridin-3-yl)-2-isobutyramidoisonicotinamide] |  |  |  | 85 | 5.6 | 2.2
CC(C)C(=O)Nc1cc(C(=O)Nc2cnccc2OCC(F)(F)F)ccn1 [Example 203, 2-Isobutyramido-N-(4-(2,2,2-trifluoroethoxy)pyridin-3-yl)isonicotinamide] |  |  |  | 70 | 0.72 | 0.35
CC(C)C(=O)Nc1cc(C(=O)Nc2cnccc2OCC(F)F)ccn1 [Example 204, N-(4-(2,2-Difluoroethoxy)pyridin-3-yl)-2-isobutyramidoisonicotinamide] |  |  |  | 41 | 1.8 | 0.97
CC(C)(F)C(=O)Nc1cc(C(=O)Nc2cnccc2-c2ccccc2)ccn1 [Example 205, 2-(2-Fluoro-2-methylpropanamido)-N-(4-phenylpyridin-3-yl)isonicotinamide] |  | 5100 |  |  | 49 | 52
CC(C)(C)C(=O)Nc1cc(C(=O)Nc2cnccc2N2CCC(F)(F)CC2)ccn1 [Example 208, N-(4-(4,4-difluoropiperidin-1-yl)pyridin-3-yl)-2-pivalamidoisonicotinamide] |  |  |  | 120 | 4.2 | 3.1
CC(C)(C)C(=O)Nc1cc(C(=O)Nc2cncc(-c3cccc(F)c3F)c2)ccn1 [Example 209, N-(5-(2,3-difluorophenyl)pyridin-3-yl)-2-pivalamidoisonicotinamide] |  |  |  | 2100 | 24 | 14
CCOc1ccncc1NC(=O)c1ccnc(NC(=O)C2CCC2)c1 [Example 211, 2-(Cyclobutanecarboxamido)-N-(4-ethoxypyridin-3-yl)isonicotinamide] |  |  |  | 72 | 2.2 | 0.9
O=C(Nc1cncc(-c2ccccc2)c1)c1ccnc(NC(=O)C2CC(F)(F)C2)c1 [Example 214, 2-(3,3-difluorocyclobutanecarboxamido)-N-(5-phenylpyridin-3-yl)isonicotinamide] |  |  |  | 490 | 4.1 | 2.9
O=C(Nc1cnccc1-c1ccccc1)c1ccnc(NC(=O)C2CC(F)(F)C2)c1 [Example 216, 2-(3,3-Difluorocyclobutanecarboxamido)-N-(4-phenylpyridin-3-yl)isonicotinamide] |  |  |  | 120 | 1.9 | 3.4
CC1(C)CC(C(=O)Nc2cc(C(=O)Nc3cnccc3-c3ccccc3)ccn2)C1 [Example 217, 2-(3,3-Dimethylcyclobutanecarboxamido)-N-(4-phenylpyridin-3-yl)isonicotinamide] |  |  |  | 170 | 1.7 | 3.2
CCOc1ccncc1NC(=O)c1ccnc(NC(=O)C2CCCC2)c1 [Example 226, 2-(Cyclopentanecarboxamido)-N-(4-ethoxypyridin-3-yl)isonicotinamide] |  |  |  | 31 | 0.62 | 0.41
O=C(Nc1cnccc1-c1ccc(Cl)cc1)c1ccnc(NC(=O)C2CCC(F)(F)C2)c1 (stereo not drawn) [Example 231, N-(4-(4-chlorophenyl)pyridin-3-yl)-2-(3,3-difluorocyclopentanecarboxamido)isonicotinamide] |  |  |  | 30 | 0.46 | 0.9
O=C(Nc1cncc(-c2ccccc2)c1)c1ccnc(NC(=O)C2CCCC2)c1 [Example 232, 2-(cyclopentanecarboxamido)-N-(5-phenylpyridin-3-yl)isonicotinamide] |  |  |  | 330 | 1.2 | 0.51
O=C(Nc1cncc(-c2ccccc2F)c1)c1ccnc(NC(=O)C2CCC(F)(F)C2)c1 (stereo not drawn) [Example 234, 2-(3,3-difluorocyclopentanecarboxamido)-N-(5-(2-fluorophenyl)pyridin-3-yl)isonicotinamide] |  |  |  | 160 | 1.4 | 0.9
